Data on 33 compounds can be found in patent US20110130380A1, “Heteroaryl Kinase Inhibitors” (priority 2009, published 2011).

In general, IC50 refers to the concentration at which inhibition is half-maximal.

Molecules are shown by their SMILES. Some results are limits rather than exact numbers.

Cdk9/cyclinT1, sequence (P50750 whole entry): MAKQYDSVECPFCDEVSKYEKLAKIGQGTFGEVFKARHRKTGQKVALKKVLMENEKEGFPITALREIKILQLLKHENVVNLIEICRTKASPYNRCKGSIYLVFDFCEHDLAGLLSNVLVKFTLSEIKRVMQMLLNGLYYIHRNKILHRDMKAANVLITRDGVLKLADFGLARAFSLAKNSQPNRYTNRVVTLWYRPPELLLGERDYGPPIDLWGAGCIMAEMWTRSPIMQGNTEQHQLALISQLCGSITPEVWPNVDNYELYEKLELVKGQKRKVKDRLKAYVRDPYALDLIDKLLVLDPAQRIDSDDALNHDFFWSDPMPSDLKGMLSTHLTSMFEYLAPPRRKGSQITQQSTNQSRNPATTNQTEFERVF
Cdk9/cyclinT1, sequence (O60563 whole entry partner): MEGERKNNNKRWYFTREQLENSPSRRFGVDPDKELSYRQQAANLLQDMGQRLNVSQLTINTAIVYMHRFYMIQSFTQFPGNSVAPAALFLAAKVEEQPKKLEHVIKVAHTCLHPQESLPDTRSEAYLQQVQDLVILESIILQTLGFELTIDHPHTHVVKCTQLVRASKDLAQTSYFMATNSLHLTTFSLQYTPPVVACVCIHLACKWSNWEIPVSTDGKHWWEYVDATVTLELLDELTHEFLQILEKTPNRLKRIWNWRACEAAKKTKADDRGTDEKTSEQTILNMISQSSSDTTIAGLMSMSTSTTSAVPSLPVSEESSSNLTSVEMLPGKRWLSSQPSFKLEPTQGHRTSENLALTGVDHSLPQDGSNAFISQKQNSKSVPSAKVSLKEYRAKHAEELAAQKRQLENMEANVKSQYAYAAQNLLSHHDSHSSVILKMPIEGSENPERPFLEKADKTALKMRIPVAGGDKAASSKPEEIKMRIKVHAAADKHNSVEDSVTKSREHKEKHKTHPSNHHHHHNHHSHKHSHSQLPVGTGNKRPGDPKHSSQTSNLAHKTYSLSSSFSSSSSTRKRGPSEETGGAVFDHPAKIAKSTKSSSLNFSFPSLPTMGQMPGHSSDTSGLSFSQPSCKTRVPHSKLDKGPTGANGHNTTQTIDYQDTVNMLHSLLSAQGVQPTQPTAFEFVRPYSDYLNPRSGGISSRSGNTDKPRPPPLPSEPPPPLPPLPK

One experiment addresses Cdk9/cyclinT1 (Homo sapiens, UniProt P50750). The experiment is described as follows: Cdk9/cyclinT1 IMAP Protocol (fluorescence polarization kinase assay). The settings on record: Cdk9_cyclinT1_IC50, Table V; generated using one of the two Cdk9/cyclinT1 assays (IMAP or Alpha Screen), not stated which; ATP 6 uM. (In general: Fluorescence polarisation rises when a labelled molecule tumbles more slowly, as on binding a larger partner.)
On to `O=C(Nc1cc(-c2cccc(NCC3CCOCC3)n2)c(Cl)cn1)[C@H]1CCCNC1` [Example 8, (S)-Piperidine-3-carboxylic acid {5′-chloro-6-[(tetrahydro-pyran-4-ylmethyl)-amino]-[2,4′]bipyridinyl-2′-yl}-amide], for which the IC50 turned out to be 46 nM. That is a double-digit nanomolar value.

`O=C(Nc1cc(-c2nc(NCC3CCOCC3)ccc2Cl)c(Cl)cn1)[C@@H]1CCCNC1` [Example 75]: the IC50 was less than 8 nM.

Consider `O=C(Nc1cc(-c2cccc(NCC3CCOCC3)n2)c(Cl)cn1)C1CNCCOC1` (stereo not drawn) [Example 187, [1,4]Oxazepane-6-carboxylic acid {5′-chloro-6-[(tetrahydro-pyran-4-ylmethyl)-amino]-[2,4′]bipyridinyl-2′-yl}-amide], for which the IC50 amounted to 3 nM.

In turn, `CS(=O)(=O)N1CCC[C@H](C(=O)Nc2cc(-c3cccc(NCC4CCOCC4)n3)c(Cl)cn2)C1` [Example 91, (S)-1-Methanesulfonyl-piperidine-3-carboxylic acid {5′-chloro-6-[(tetrahydro-pyran-4-ylmethyl)-amino]-[2,4′]bipyridinyl-2′-yl}-amide] yielded an IC50 of less than 8 nM.

As for `C[C@@H]1CC[C@@H](C(=O)Nc2cc(-c3cccc(NC[C@@H]4CCOC(C)(C)C4)n3)c(Cl)cn2)CN1` (single isomer, unassigned) [Example 242], the IC50 turned out to be 1 nM.

Turning to `CC(C)(C)C(=O)Nc1cc(-c2cccc(NCC3CCOCC3)n2)c(Cl)cn1` [Example 72, N-{5′-Chloro-6-[(tetrahydro-pyran-4-ylmethyl)-amino]-[2,4′]bipyridinyl-2′-yl}-2,2-dimethyl-propionamide], the IC50 amounted to 40 nM.

As for `O=C(Nc1cc(-c2cccc(NCC3CCOCC3)n2)c(Cl)cn1)C1(F)CCCNC1` (single isomer, unassigned) [Example 118], half-maximal inhibition (IC50) required 214 nM. Compared with the last compound, the IC50 is about 5.3-fold higher.

The compound `CCS(=O)(=O)N1CCC[C@H](C(=O)Nc2cc(-c3nc(NCC4CCOCC4)ccc3Cl)c(Cl)cn2)C1` [Example 111, (S)-1-Ethanesulfonyl-piperidine-3-carboxylic acid {3,5′-dichloro-6-[(tetrahydro-pyran-4-ylmethyl)-amino]-[2,4′]bipyridinyl-2′-yl}-amide] had an IC50 of less than 8 nM.

With `C[C@H]1CC[C@H](C(=O)Nc2cc(-c3cccc(NC[C@@H]4CCOC(C)(C)C4)n3)c(Cl)cn2)CN1` (single isomer, unassigned) [Example 243], the midpoint of inhibition, the IC50, lay at 2 nM.

`O=C(Nc1cc(-c2cccc(NCC3(F)CCOCC3)n2)c(Cl)cn1)[C@@H]1CCCNC1` [Example 237, (R)-Piperidine-3-carboxylic acid {5′-chloro-6-[(4-fluoro-tetrahydro-pyran-4-ylmethyl)-amino]-[2,4′]bipyridinyl-2′-yl}-amide] registered an IC50 of 1 nM. Against the preceding compound, the IC50 is about 2-fold lower.

`COC[C@H]1CC[C@H](C(=O)Nc2cc(-c3cccc(NCC4CCOCC4)n3)c(Cl)cn2)CN1` (single isomer, unassigned) [Example 236] had an IC50 of 7 nM.

On to `C[C@@H]1CC[C@@H](C(=O)Nc2cc(-c3ccc(F)c(NCC4CCOCC4)n3)c(Cl)cn2)CN1` (single isomer, unassigned) [Example 189], for which half-maximal inhibition (IC50) was put at 1 nM.

With `O=C(Nc1cc(-c2nc(NCC3CCOCC3)ccc2F)c(Cl)cn1)[C@@H]1CCCNC1` [Example 157, (R)-Piperidine-3-carboxylic acid {5′-chloro-3-fluoro-6-[(tetrahydro-pyran-4-ylmethyl)-amino]-[2,4′]bipyridinyl-2′-yl}-amide], the IC50 amounted to 1 nM.

`CC(C)S(=O)(=O)N1CCC[C@H](C(=O)Nc2cc(-c3nc(NCC4CCOC(C)(C)C4)ccc3Cl)c(Cl)cn2)C1` (stereo partly drawn) [Example 139, (S)-1-(Propane-2-sulfonyl)-piperidine-3-carboxylic acid {3,5′-dichloro-6-[(2,2-dimethyl-tetrahydro-pyran-4-ylmethyl)-amino]-[2,4′]bipyridinyl-2′-yl}-amide] yielded an IC50 of less than 8 nM.

The compound `COC(=O)N[C@@H]1CC[C@H](C(=O)Nc2cc(-c3nc(NCC4CCOCC4)ccc3Cl)c(Cl)cn2)C1` [Example 106, ((lR,3S)-3-{3,5′-Dichloro-6-[(tetrahydro-pyran-4-ylmethyl)-amino]-[2,4′]bipyridinyl-2′-ylcarbamoyl}-cyclopentyl)-carbamic acid methyl ester] yielded an IC50 of less than 8 nM.

`CCS(=O)(=O)N[C@@H]1CC[C@H](C(=O)Nc2cc(-c3nc(NCC4CCOCC4)ccc3Cl)c(Cl)cn2)C1` [Example 113, (1S,3R)-3-Ethanesulfonylamino-cyclopentanecarboxylic acid {3,5′-dichloro-6-[(tetrahydro-pyran-4-ylmethyl)-amino]-[2,4′]bipyridinyl-2′-yl}-amide] had an IC50 of less than 8 nM.

On to `O=C(Nc1cc(-c2cccc(NCC3CCOCC3)n2)c(Cl)cn1)[C@@H]1CC[C@@H](C(F)(F)F)NC1` (racemic) [Example 161, (3R,6S)-/(3S,6R)-6-Trifluoromethyl-piperidine-3-carboxylic acid {5′-chloro-6-[(tetrahydro-pyran-4-ylmethyl)-amino]-[2,4′]bipyridinyl-2′-yl}-amide], for which it took 9 nM to reach half-maximal inhibition (IC50).

`O=C(Nc1cc(-c2cccc(NCC3CCOCC3)n2)c(Cl)cn1)[C@@H]1CCCN(CC(F)(F)F)C1` [Example 11, (R)-1-(2,2,2-Trifluoro-ethyl)-piperidine-3-carboxylic acid {5′-chloro-6-[(tetrahydro-pyran-4-ylmethyl)-amino]-[2,4′]bipyridinyl-2′-yl}-amide]: half-maximal inhibition (IC50) required 770 nM. This IC50 is about 86-fold higher than that of the compound before.

For the compound `O=C(Nc1cc(-c2cccc(NC[C@H]3CCCO3)n2)c(Cl)cn1)[C@@H]1CCCNC1` [Example 25, (R)-Piperidine-3-carboxylic acid (5′-chloro-6-{[(R)-1-(tetrahydro-furan-2-yl)methyl]-amino}-[2,4′]bipyridinyl-2′-yl)-amide], the IC50 was found to be 47 nM.

As to `CC1(C)CC(CNc2nc(-c3cc(NC(=O)[C@@H]4CCCNC4)ncc3Cl)ccc2F)CCO1` (stereo partly drawn) [Example 198, (R)-Piperidine-3-carboxylic acid {5′-chloro-6-[(2,2-dimethyl-tetrahydro-pyran-4-ylmethyl)-amino]-5-fluoro-[2,4′]bipyridinyl-2′-yl}-amide], the IC50 came out at 1 nM.

`CC1(C)CC(CNc2ccc(Cl)c(-c3cc(NC(=O)[C@@H]4CCCNC4)ncc3Cl)n2)CCO1` (stereo partly drawn) [Example 132, (R)-Piperidine-3-carboxylic acid {3,5′-dichloro-6-[(2,2-dimethyl-tetrahydro-pyran-4-ylmethyl)-amino]-[2,4′]bipyridinyl-2′-yl}-amide] registered an IC50 of less than 8 nM.

In turn, `O=C(Nc1cc(-c2cccc(NCC3CCOCC3)n2)c(Cl)cn1)[C@@H]1CCCN(CCF)C1` [Example 10, (R)-1-(2-Fluoro-ethyl)-piperidine-3-carboxylic acid {5′-chloro-6-[(tetrahydro-pyran-4-ylmethyl)-amino]-[2,4′]bipyridinyl-2′-yl}-amide] had an IC50 of 164 nM. This counts as sub-micromolar.

`C[C@@H](O)CNc1cccc(-c2cc(NC(=O)[C@@H]3CCCNC3)ncc2Cl)n1` [Example 29, (R)-Piperidine-3-carboxylic acid [5′-chloro-6-((R)-2-hydroxy-propylamino)-[2,4′]bipyridinyl-2′-yl]-amide]: the IC50 worked out at 26 nM.

On to `O=C(Nc1cc(-c2cccc(NCC3CCOCC3)n2)c(Cl)cn1)[C@H]1CCCO1` [Example 68, (R)-Tetrahydro-furan-2-carboxylic acid {5′-chloro-6-[(tetrahydro-pyran-4-ylmethyl)-amino]-[2,4′]bipyridinyl-2′-yl}-amide], for which 11 nM corresponded to half-maximal inhibition (IC50).

`CO[C@H]1CNC[C@@H]1C(=O)Nc1cc(-c2ccc(F)c(NCC3CCOCC3)n2)c(Cl)cn1` [Example 144, (3S,4R)-4-Methoxy-pyrrolidine-3-carboxylic acid {5′-chloro-5-fluoro-6-[(tetrahydro-pyran-4-ylmethyl)-amino]-[2,4′]bipyridinyl-2′-yl}-amide] yielded an IC50 of 1 nM.

Compound `COC(=O)N1CCC[C@H](C(=O)Nc2cc(-c3nc(NC[C@@H]4CCOC(C)(C)C4)ccc3Cl)c(Cl)cn2)C1` (single isomer, unassigned) [Example 174] displayed an IC50 of 1 nM. In other words, the single-digit nanomolar range.

As for `CCN1CCCC(C(=O)Nc2cc(-c3cccc(NCC4CCOCC4)n3)c(Cl)cn2)C1` (single isomer, unassigned) [Example 14], the IC50 was determined as 811 nM.

For `O=C(Nc1cc(-c2cccc(NCC3CCOCC3)n2)c(Cl)cn1)C1CNCC(F)C1` (stereo not drawn) [Example 168, 5-Fluoro-piperidine-3-carboxylic acid {5′-chloro-6-[(tetrahydro-pyran-4-ylmethyl)-amino]-[2,4′]bipyridinyl-2′-yl}-amide], the IC50 worked out at 6 nM. This IC50 is about 140-fold lower than that of the compound before.

For `CC(C)S(=O)(=O)N[C@@H]1CC[C@H](C(=O)Nc2cc(-c3nc(NCC4CCOCC4)ccc3Cl)c(Cl)cn2)C1` [Example 114, (1S,3R)-3-(Propane-2-sulfonylamino)-cyclopentanecarboxylic acid {3,5′-dichloro-6-[(tetrahydro-pyran-4-ylmethyl)-amino]-[2,4′]bipyridinyl-2′-yl}-amide], the IC50 is less than 8 nM.

In turn, `COC[C@@H]1C[C@@H](C(=O)Nc2cc(-c3nc(NCC4CCOCC4)ccc3Cl)c(Cl)cn2)CN1` [Example 185, (3R,5S)-5-Methoxymethyl-pyrrolidine-3-carboxylic acid {3,5′-dichloro-6-[(tetrahydro-pyran-4-ylmethyl)-amino]-[2,4′]bipyridinyl-2′-yl}-amide] had an IC50 of 1 nM.

As to `CC1(C(=O)Nc2cc(-c3cccc(NCC4CCOCC4)n3)c(Cl)cn2)CNCCO1` (stereo not drawn) [Example 145, 2-Methyl-morpholine-2-carboxylic acid {5′-chloro-6-[(tetrahydro-pyran-4-ylmethyl)-amino]-[2,4′]bipyridinyl-2′-yl}-amide], half-maximal inhibition (IC50) required 785 nM.

Staying with this experiment, now noted: Cdk9_cyclinT1_IC50, generated using one of the two Cdk9/cyclinT1 assays (IMAP or Alpha Screen), not specified per value; ATP 6 uM.
Consider `Cc1ncc(-c2cc(NC(=O)C(C)C)ncc2Cl)cc1NCC1CCOCC1` [Example 310, N-{5′-Chloro-6-methyl-5-[(tetrahydro-pyran-4-ylmethyl)-amino]-[3,4′]bipyridinyl-2′-yl}-isobutyramide], for which the IC50 stood at 147 nM. This lies in the sub-micromolar range.

Take `Cc1ccncc1-c1cc(NC(=O)[C@@H]2CCCNC2)ncc1Cl` [Example 309, (R)-Piperidine-3-carboxylic acid (5′-chloro-4-methyl-[3,4′]bipyridinyl-2′-yl)-amide]: half-maximal inhibition (IC50) was put at 627 nM.
